Columns and labels:
[1] = tested on: Purified antibodies specific to the RBM (anti-RBM antibodies from vaccinated serum); type: binding, human
[2] = tested on: IgG in serum of vaccinated individuals; assay: In-house peptide ELISA, IgG; type: binding, human; details: serum 1:25; for IgG seroreactivity (positive samples): reactivity index > 1.1
Description: A panel of 31 serum samples were obtained from individuals who received a single dose of the Oxford/AstraZeneca vaccine, and 15 serum samples were collected from individuals who received four doses. Serum from healthy donors, collected before the pandemic, was provided by HEMORIO, a centralized network of blood donor facilities in Rio de Janeiro, Brazil. Serum samples were supplied without identifying information to ensure patient privacy.
An in-house ELISA was conducted using Immunolon 4 HB plates (Immunochemistry Technologies, Bloomington, MN, USA). The coating process involved overnight incubation at 4 °C, wherein each well received 500 ng of peptides in a coating buffer (50 mM carbonate–bicarbonate buffer, pH 9.6). After washing with PBS-T (phosphate-buffered saline plus 0.05% Tween 20), the plates were incubated for 1 h at 37 °C with 1% BSA (200 µL) in PBS-T to block free binding sites. Following the dilution of patient serum in PBS-T with 1% BSA (1:25), 100 µL of the diluted serum was applied to immunosorbent plates, which were then incubated at 37 °C for 1 h. Following a series of PBS-T washes, plates were treated with 100 µL of mouse anti-human IgG3 (1:1000) followed by association with antimouse peroxidase (1:15.000) or goat anti-human immunoglobulin classes IgG (1:10.000), IgM (1:10.000), and IgA (1:5000) or subclasses IgG1 (1:1000) and IgG2 (1:1000) associated with the HRP molecule, respectively (Sigma-Aldrich, St Louis, MO, USA). Between each step, the plates were incubated at 37 °C for 1 h. Following the addition of 3,3′,5,5′-tetramethylbenzidine (1-Step™ Ultra TMB-ELISA, Science Biotech Ltd., Lages, SC, Brazil) for 15 min, 0.5 M sulfuric acid was utilized to terminate the reaction. The plate was read 30 min after the Stop Solution was added. The values of empty wells that contained only peptides were deducted from the optical density of the sample.
Prism software (GraphPad version 6, San Diego, CA, USA) was utilized to analyze the data. Statistical differences were identified using the Kruskal–Wallis test and Dunn’s multiple comparisons tests. Differences were considered significant when the p-value was less than 0.05. The reactivity index (RI) was calculated by dividing the absorbance of a given protein by the threshold established by a receiver operation curve (ROC) analysis. A result greater than 1.10 was considered positive, while a result less than 0.90 was considered negative; these are represented by dot lines. Samples with a relative index (RI) value of 1.0 ± 10% were classified as gray-zone samples and deemed inconclusive.

[3] = Protein thermal shift assay; type: physicochemical
Description: Protein thermal shift assays were performed using a QuantStudio 3 PCR System (Applied Biosystems, Foster City, CA, USA). The experiments used a 0.2 mL MicroAmp® optical eight-strip manufactured by Applied Biosystems. Every step was executed on ice. In each measurement, duplicates or quadruplicates of the samples were analyzed. Each measurement included a negative control free of protein and a positive control obtained with Lysozyme (10 µg) and the peptide S8WT (5 µg). A carbonate–bicarbonate buffer (50 mM, pH 9.6) and a protein thermal shift dye (Applied Biosystems, Foster City, CA, USA) were used in a 4× dye concentration. The plate was sealed with MicroAmp™ Optical Adhesive Film (Applied Biosystems, Foster City, CA, USA) and incubated on ice for 15 min after all components were pipetted into the wells. An Applied Biosystems QuantStudio™ 3 Real-Time PCR System was used, utilizing a gradient rate of 0.05 °C/s and a melt curve filter setting of x2-m2 from 25 °C to 99 °C with continuous data collection. Analyses of the melting curves were conducted with the TSAR application in R version 4.2.1.

antibodies in sera = details: ref A novel precision-serology assay for SARS-CoV-2 infection based on linear B-cell epitopes of Spike protein; cited from earlier work
[4] = first dose Oxford/AstraZeneca, n = 30, 500 ng peptide per well
[5] = heterologous booster doses, n = 7

GSTPCNGVEGFNCYF [S2WT]
binding affinity of RBM antibodies (in words) [1]: stronger
Kd ([1]; read-out: Kd (dissociation constant)): 35 nM
IgG positive samples (reactivity index > 1.1) [2, 4]: 4/30
IgG seroreactivity (positive samples) ([2]; first dose Oxford/AstraZeneca, n = 30): 13.3%
IgG positive samples (reactivity index > 1.1) [2, 5]: 1/7
IgG seroreactivity (positive samples) [2, 5]: 14.3%

Lysozyme
Tm ([3]; Lysozyme 10 µg control, carbonate–bicarbonate buffer 50 mM, pH 9.6, 25 to 99 °C, 0.05 °C/s, protein thermal shift dye): 72.7 °C
Tm ([3]; replicate 1 (Lysozyme_1), 10 µg, carbonate–bicarbonate buffer pH 9.6): 71.7 °C
Tm ([3]; replicate 2 (Lysozyme_2), 10 µg, carbonate–bicarbonate buffer pH 9.6): 73.7 °C

NGVEGFNCYFP
serological reactivity vs other S1 and S2 regions (antibodies in sera): less serologically reactive than other S1 and S2 regions

YFPLQSYGFQPTNGV [S3WT]
IgG positive samples (reactivity index > 1.1) [2, 4]: only two positive samples
IgG positive samples (reactivity index > 1.1) [2, 5]: one for heterologous booster doses

Reference: PMC11055068, “Humoral Immune Response to SARS-CoV-2 Spike Protein Receptor-Binding Motif Linear Epitopes” (Vaccines, 2024)
